Assay results as given in the supplement of paper PMC10307832.

Assays:
Experiment in all cases: relative viability (nuclei count vs DMSO), 5 days (fraction); higher = more cells survive
[1] = compound: CN(c1ncccc1CNc1nc(Nc2ccc3c(c2)CC(=O)N3)ncc1C(F)(F)F)S(C)(=O)=O + CC(=O)c1c(C)c2cnc(Nc3ccc(N4CCNCC4)cn3)nc2n(C2CCCC2)c1=O [Palbociclib] (partner 0.5 µM)
Outline: (§1)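 Nuclei were stained with Hoechst during a one-step fixation (final 0.05% Triton X-100, 1% formaldehyde, 1 ug/ml Hoechst) carried out 5 days after dosing, then counted on 4× images. The cells, lung cancer lines in 1536-well plates, had been dosed by pin tool the day after seeding with one drug alone or a fixed anchor-drug dose plus five library-drug doses (not always all listed) in √10 steps. Relative viability is the nuclei count in treated wells divided by that in vehicle wells, and each value is the median of duplicate plates.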

[2] = compound: CN(c1ncccc1CNc1nc(Nc2ccc3c(c2)CC(=O)N3)ncc1C(F)(F)F)S(C)(=O)=O + Cc1nc(Nc2ncc(C(=O)Nc3c(C)cccc3Cl)s2)cc(N2CCN(CCO)CC2)n1 [Dasatinib] (partner 0.075 µM)
Outline: as §1

[3] = compound: CN(c1ncccc1CNc1nc(Nc2ccc3c(c2)CC(=O)N3)ncc1C(F)(F)F)S(C)(=O)=O + CCNC(=O)c1noc(-c2cc(C(C)C)c(O)cc2O)c1-c1ccc(CN2CCOCC2)cc1 [Luminespib] (partner 0.01 µM)
Outline: as §1

[4] = compound: CN(c1ncccc1CNc1nc(Nc2ccc3c(c2)CC(=O)N3)ncc1C(F)(F)F)S(C)(=O)=O + CC(C)C[C@H](NC(=O)[C@H](Cc1ccccc1)NC(=O)c1cnccn1)B(O)O [Bortezomib] (partner 0.002 µM)
Outline: as §1

| Cell Line | relative viability ([1]; first compound 0.01 µM) | relative viability ([1]; first compound 0.03162 µM) | relative viability ([1]; first compound 0.1 µM) | relative viability ([1]; first compound 0.3162 µM) | relative viability ([1]; first compound 1 µM) | relative viability ([2]; first compound 0.01 µM) | relative viability ([2]; first compound 0.03162 µM) | relative viability ([2]; first compound 0.1 µM) | relative viability ([2]; first compound 0.3162 µM) | relative viability ([2]; first compound 1 µM) | relative viability ([3]; first compound 0.01 µM) | relative viability ([3]; first compound 0.03162 µM) | relative viability ([3]; first compound 0.1 µM) | relative viability ([3]; first compound 0.3162 µM) | relative viability ([3]; first compound 1 µM) | relative viability ([4]; first compound 0.01 µM) | relative viability ([4]; first compound 0.03162 µM) | relative viability ([4]; first compound 0.1 µM) | relative viability ([4]; first compound 0.3162 µM) | relative viability ([4]; first compound 1 µM) |
| --- | --- | --- | --- | --- | --- | --- | --- | --- | --- | --- | --- | --- | --- | --- | --- | --- | --- | --- | --- | --- |
| HCC-827 | 0.453 | 0.462 | 0.503 | 0.545 | 0.437 | 0.191 | 0.185 | 0.115 | 0.107 | 0.109 | 0.346 | 0.612 | 0.595 | 1.02 | 0.629 | 1.1 | 1.06 | 1.09 | 1.02 | 1.05 |
| HCC-78 | 0.419 | 0.46 | 0.462 | 0.487 | 0.408 | 0.312 | 0.33 | 0.325 | 0.256 | 0.296 | – | – | – | – | – | 0.567 | 0.587 | 0.502 | 0.462 | 0.422 |
| NCI-H2085 | 0.444 | 0.467 | 0.443 | 0.462 | 0.401 | 0.215 | 0.232 | 0.178 | 0.183 | 0.152 | 0.394 | 0.681 | 0.457 | 0.418 | 0.36 | 1.06 | 1.11 | 1.04 | 1 | 0.949 |
| PC-14 | 0.543 | 0.635 | 0.526 | 0.515 | 0.364 | 0.211 | 0.191 | 0.14 | 0.211 | 0.158 | 0.233 | 0.15 | 0.192 | 0.176 | 0.236 | 1.02 | 0.935 | 0.984 | 0.799 | 0.821 |
| NCI-H1648 | 0.264 | 0.274 | 0.224 | 0.242 | 0.207 | – | – | – | – | – | – | – | – | – | – | – | – | – | – | – |
| A-427 | 0.529 | 0.491 | 0.516 | 0.546 | 0.491 | 0.628 | 0.864 | 0.713 | 0.823 | 0.725 | 0.908 | 1.1 | 0.832 | 0.921 | 0.905 | 1.09 | 1.01 | 0.998 | 0.942 | 0.965 |
| H3255 | 0.312 | 0.316 | 0.345 | 0.327 | 0.295 | 0.368 | 0.347 | 0.356 | 0.385 | 0.378 | 1.03 | 0.963 | 0.796 | 0.933 | 0.904 | 0.758 | 0.783 | 0.819 | 0.505 | 0.784 |
| HCC-44 | 0.83 | 0.953 | 0.943 | 0.907 | 0.867 | – | – | – | – | – | 1.04 | 1.5 | 1.24 | – | 0.933 | 0.963 | 0.931 | 0.913 | 0.829 | 0.824 |
| NCI-H1734 | 0.35 | 0.327 | 0.345 | 0.348 | 0.304 | 0.423 | 0.436 | 0.399 | 0.339 | 0.34 | 0.198 | 0.178 | 0.184 | 0.227 | 0.18 | 1.06 | 1.1 | 0.996 | 0.857 | 0.949 |
| NCI-H2228 | 0.836 | 0.878 | 0.881 | 0.749 | 0.6 | 0.549 | 0.433 | 0.42 | 0.404 | 0.339 | 0.144 | 0.23 | 0.0915 | 0.182 | 0.103 | 0.817 | 1.24 | 1.05 | 1.06 | 1.02 |
| ABC-1 | 0.608 | 0.609 | 0.725 | 0.814 | 0.676 | 0.574 | 0.633 | 0.559 | 0.54 | 0.587 | 0.557 | 0.985 | 0.511 | 0.524 | 0.516 | 0.308 | 0.273 | 0.396 | 0.376 | 0.329 |
| COR-L23 | 0.265 | 0.262 | 0.308 | 0.239 | 0.234 | 0.458 | 0.524 | 0.483 | 0.413 | 0.323 | 0.622 | 1 | 0.656 | 0.734 | 0.41 | 0.967 | 1.01 | 1.05 | 0.951 | 0.894 |
| NCI-H358 | 0.135 | 0.113 | 0.145 | 0.119 | 0.0943 | 0.202 | 0.15 | 0.137 | 0.22 | 0.167 | 0.292 | 0.465 | 0.397 | 0.247 | 0.214 | – | – | – | – | – |
| EBC-1 | – | – | – | – | – | – | – | – | – | – | – | – | – | – | – | 0.596 | 0.5 | 0.56 | 0.585 | 0.499 |
| NCI-H596 | – | – | – | – | – | 0.558 | 0.623 | 0.54 | 0.608 | 0.5 | 0.943 | 1.02 | 0.951 | 1.06 | 0.968 | 0.793 | 0.973 | 0.93 | 1.1 | 1.28 |
| SK-MES-1 | 0.286 | 0.298 | 0.304 | 0.296 | 0.294 | 0.236 | 0.262 | 0.132 | 0.171 | 0.163 | 0.782 | 0.813 | 0.809 | 0.788 | 0.673 | – | – | – | – | – |
| NCI-H1703 | – | – | – | – | – | – | – | – | – | – | – | – | – | – | – | 0.311 | 0.295 | 0.415 | 0.481 | 0.235 |
| NCI-H1944 | 0.346 | 0.342 | 0.328 | 0.322 | 0.312 | 0.232 | 0.231 | 0.202 | 0.252 | 0.276 | 0.779 | 0.926 | 0.818 | 0.732 | 0.828 | – | – | – | – | – |
| NCI-H1563 | – | – | – | – | – | 0.458 | 0.422 | 0.429 | 0.372 | 0.385 | 0.538 | 0.528 | 0.53 | 0.482 | 0.547 | 0.906 | 0.808 | 0.849 | 0.867 | 0.876 |
| NCI-H1395 | 0.649 | 0.602 | 0.698 | 0.655 | 0.596 | 0.461 | 0.374 | 0.359 | 0.414 | 0.386 | 0.766 | 0.703 | 0.682 | 0.558 | 0.658 | – | – | – | – | – |
| NCI-H2170 | 0.422 | 0.434 | 0.39 | 0.382 | 0.388 | 0.455 | 0.526 | 0.461 | 0.504 | 0.404 | 0.722 | 0.799 | 0.707 | 0.749 | 0.424 | – | – | – | – | – |
